The values that follow come from ChEMBL document CHEMBL5050844 (2019).

Assay [1] in a line: Induction of anti-CD3/CD28 antibodies-stimulated human CD8+ T cell activation at 1.11 uM assessed fold increase in CD69 expression measured by flow cytometry analysis. The assay is classed as functional, T cell line. In general terms: A flow cytometer gives signals particle by particle.
The nature of assay [2]: Induction of anti-CD3 antibodies-stimulated human CD8+ T cell activation at 10 uM assessed fold increase in cell proliferation measured by flow cytometry analysis. Further: reference of the scale not given here. The assay is classed as functional, T cell line.
Assay [3] is described as follows: Induction of anti-CD3 antibodies-stimulated human exhausted T cell activation assessed fold increase in GM-CSF secretion measured by ELISA assay. Further: reference of the scale not given here. In kind it is functional, T cell line. (In an ELISA, binding on a coated surface is turned into a signal by an enzyme label.)
The target of assay [4] is E3 ubiquitin-protein ligase CBL-B (Homo sapiens, UniProt Q13191). In words: Inhibition of N-terminal Avi-tagged human CBL-B (36 to 427 residues) incubated with 60 nM Src kinase for 1.5 hrs followed by incubation with fluorescently labeled UbcH5B-Ub for 1 hr and measured by TR-FRET assay. In kind it is single protein. Background: In TR-FRET formats the signal depends on donor and acceptor labels being close together.
E3 ubiquitin-protein ligase CBL-B, sequence (Q13191 whole entry, the tested form may be a part): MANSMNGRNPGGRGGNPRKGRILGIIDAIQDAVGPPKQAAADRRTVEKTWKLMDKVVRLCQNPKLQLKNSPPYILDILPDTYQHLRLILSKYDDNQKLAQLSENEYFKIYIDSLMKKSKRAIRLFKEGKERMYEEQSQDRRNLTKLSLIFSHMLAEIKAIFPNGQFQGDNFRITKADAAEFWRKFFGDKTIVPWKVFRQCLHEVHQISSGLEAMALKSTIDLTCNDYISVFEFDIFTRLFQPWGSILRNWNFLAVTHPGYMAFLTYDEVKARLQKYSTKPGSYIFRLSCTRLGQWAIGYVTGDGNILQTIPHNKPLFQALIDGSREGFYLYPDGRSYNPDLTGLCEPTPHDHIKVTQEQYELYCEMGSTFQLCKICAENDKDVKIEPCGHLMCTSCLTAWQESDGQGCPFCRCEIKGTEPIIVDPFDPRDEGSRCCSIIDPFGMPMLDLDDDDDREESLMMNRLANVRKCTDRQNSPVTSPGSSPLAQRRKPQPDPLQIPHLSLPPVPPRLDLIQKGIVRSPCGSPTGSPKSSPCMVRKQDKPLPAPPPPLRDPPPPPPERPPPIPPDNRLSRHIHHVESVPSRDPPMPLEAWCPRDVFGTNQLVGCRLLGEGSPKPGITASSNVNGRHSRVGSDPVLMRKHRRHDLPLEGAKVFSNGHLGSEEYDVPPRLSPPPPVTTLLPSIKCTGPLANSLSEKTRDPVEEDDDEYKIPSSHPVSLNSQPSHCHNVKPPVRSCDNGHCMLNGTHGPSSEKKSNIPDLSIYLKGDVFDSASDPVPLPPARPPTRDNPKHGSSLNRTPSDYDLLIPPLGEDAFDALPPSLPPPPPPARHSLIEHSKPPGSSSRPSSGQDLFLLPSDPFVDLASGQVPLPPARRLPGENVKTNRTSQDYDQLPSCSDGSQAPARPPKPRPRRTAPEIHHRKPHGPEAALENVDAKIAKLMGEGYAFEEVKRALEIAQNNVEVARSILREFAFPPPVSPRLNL

A short description of assay [5]: Induction of anti-CD3/CD28 antibodies-stimulated human T cell activation at 10 uM assessed fold increase in GM-CSF secretion measured by ELISA assay. In kind it is functional, T cell line.
A short description of assay [6]: Induction of anti-CD3/CD28 antibodies-stimulated human T cell activation at 1.11 uM assessed fold increase in IFN-gamma secretion measured by ELISA assay. The assay is classed as functional, T cell line.
A short description of assay [7]: Induction of anti-CD3 antibodies-stimulated human T cell activation at 10 uM assessed fold increase in GM-CSF secretion measured by ELISA assay. Further: reference of the scale not given here. The assay is classed as functional, T cell line.
The nature of assay [8]: Induction of anti-CD3 antibodies-stimulated human T cell activation at 10 uM assessed fold increase in IFN-gamma secretion measured by ELISA assay. Further: reference of the scale not given here. The assay is classed as functional, T cell line.
Assay [9] can be described thus: Induction of anti-CD3 antibodies-stimulated human CD4+ T cell activation at 10 uM assessed fold increase in CD69 expression measured by flow cytometry analysis. Further: reference of the scale not given here. The assay is classed as functional, T cell line.
Assay [10] is described as follows: Induction of anti-CD3 antibodies-stimulated human T cell activation at 8 uM assessed fold increase in IL-2 secretion measured by ELISA assay. Further: reference of the scale not given here. In kind it is functional, T cell line.
A short description of assay [11]: Induction of anti-CD3 antibodies-stimulated human exhausted CD4+ T cell activation assessed fold increase in CTLA4 expression measured by flow cytometry analysis. Further: reference of the scale not given here. The assay is classed as functional, T cell line.
The nature of assay [12]: Induction of anti-CD3/CD28 antibodies-stimulated human T cell activation at 0.3 uM assessed fold increase in CD25 expression measured by ELISA assay. The assay is classed as functional, T cell line.
Assay [13] can be described thus: Induction of anti-CD3/CD28 antibodies-stimulated human T cell activation at 10 uM assessed fold increase in IFN-gamma secretion measured by ELISA assay. The assay is classed as functional, T cell line.
Assay [14] in a line: Induction of anti-CD3 antibodies-stimulated human exhausted CD8+ T cell activation assessed fold increase in CTLA4 expression measured by flow cytometry analysis. Further: reference of the scale not given here. The assay is classed as functional, T cell line.
The nature of assay [15]: Induction of anti-CD3 antibodies-stimulated human CD8+ T cell activation at 1.11 uM assessed fold increase in cell proliferation measured by flow cytometry analysis. Further: reference of the scale not given here. In kind it is functional, T cell line.
The nature of assay [16]: Induction of anti-CD3 antibodies-stimulated human T cell activation at 1 uM assessed fold increase in IL-2 secretion measured by ELISA assay. Further: reference of the scale not given here. In kind it is functional, T cell line.

Regarding `Cn1cnnc1C(F)(F)[C@](C)(F)c1cccc(N2Cc3c(cc(CN4CC[C@@H](C#N)C4)cc3C(F)(F)F)C2=O)c1`, the “fold change (FC)” value in assay [1] is 1.201; in assay [2], above 4; in assay [3], above 1.61; in assay [5], above 4; in assay [6], above 4; in assay [7], 2.01. For the same compound, the “fold change (FC)” value is on record as 3.01 in assay [8]; above 1.601 in assay [9]; “>=0.201” in [10]; above 1.61 in assay [11]; 1.01 in assay [12]; above 4 in [13]. Moreover, the “fold change (FC)” value in [14] was above 1.61; in assay [15] it was above 4; in assay [16], 0.151. In [4], the IC50 (as a rule, the point on the concentration scale where inhibition reaches its midpoint) was below 100 nM.
With `C[C@H](Cc1nncn1C)c1cccc(NC(=O)c2nc(C(F)(F)F)c[nH]2)c1`, the “fold change (FC)” value was “<=1.2” in assay [1]; above 4 in [2]; “<=1.4” in assay [3]; 2.01 in assay [5]; “<=2” in assay [6]; 2.01 in [7]. For the same compound, the “fold change (FC)” value in [8] was 2.01; in [9], 1.401; in [10], “>=0.201”; in assay [11] it was “<=1.4”; in assay [12], 1.01; in assay [13], 2.01. For the same compound, the “fold change (FC)” value in assay [14] is listed as “<=1.4”; in assay [15], 2.01; in assay [16], 0.051.
As for `C[C@H](Cc1nncn1C)c1cccc(NC(=O)c2cccc(CCO)n2)c1`, the “fold change (FC)” value in assay [1] is reported as “<=1.2”; in assay [2] it was “<=2”; in assay [3] it was “<=1.4”; in assay [5] it was 1.51; in [6], “<=2”; in [7], 1.51. The “fold change (FC)” value in assay [8] is “<=2”; in assay [9], 1.201; in assay [10], 0.151; in [11] it was “<=1.4”; in assay [12], 1.01; in assay [13] it was above 4. For the same compound, the “fold change (FC)” value is “<=1.4” in assay [14], “<=2” in assay [15] and 0.051 in [16].
Consider `Cn1cnnc1[C@@H]1C[C@@H]1c1cccc(N2Cc3c(ccnc3C(F)(F)F)C2=O)c1`, for which the “fold change (FC)” value is given as “<=1.2” in [1]; “<=2” in [2]; “<=1.4” in [3]; 2.01 in [5]; “<=2” in assay [6]; “<=1.5” in assay [7]. The “fold change (FC)” value in [8] was “<=2”; in assay [9], “<=1.2”; in assay [10], 0.101; in assay [11], “<=1.4”; in assay [12] it was 1.01; in assay [13], “<=2”. For the same compound, the “fold change (FC)” value in assay [14] was “<=1.4”; in assay [15], “<=2”; in assay [16], 0.051.
On to `C[C@H](Cc1nncn1C)c1cccc(NC(=O)c2n[nH]c3c2CCC3)c1`, for which the “fold change (FC)” value in assay [1] is reported as 1.201; in assay [2], 2.01; in [3], “<=1.4”; in assay [5], 2.01; in [6], “<=2”; in [7], 1.51. The “fold change (FC)” value is recorded as “<=2” in [8]; 1.201 in [9]; 0.151 in assay [10]; “<=1.4” in assay [11]; 1.01 in assay [12]; 2.01 in [13]. In addition, the figures for the “fold change (FC)” value in assay [14], in assay [15] and in assay [16] were “<=1.4”, above 4 and 0.101, respectively.
Consider `Cc1cc(C(=O)Nc2cccc([C@@H](C)Cc3nncn3C)c2)nc(C2CC2)n1`, for which the “fold change (FC)” value in assay [1] was 1.201; in assay [2] it was above 4; in [3], “<=1.4”; in [5] it was 2.01; in assay [6], 3.01; in assay [7], 1.51. The “fold change (FC)” value in [8] is given as “<=2”; in assay [9], above 1.601; in assay [10], 0.101; in [11], “<=1.4”; in [12], 1.01; in assay [13], above 4. Besides, the results for the “fold change (FC)” value in assay [14], in [15] and in assay [16] were “<=1.4”, 2.01 and 0.051, respectively.
Take `C[C@H](Sc1nncn1C)c1cccc(NC(=O)c2cc(C(=O)N3CC[C@H](O)C3)ccn2)c1`: the “fold change (FC)” value in assay [1] is 1.201; in assay [2], above 4; in assay [3] it was “<=1.4”; in [5] it was above 4; in assay [6], 2.01; in assay [7], 2.01. The “fold change (FC)” value in [8] is on record as above 4; in [9], above 1.601; in [10] it was “<=0.05”; in assay [11], “<=1.4”; in assay [12], 1.01; in assay [13], above 4. The “fold change (FC)” value in assay [14] is recorded as “<=1.4”; in [15], above 4; in [16], “<=0.05”.
Turning to `Cn1cnnc1CC1(c2cccc(N3Cc4c(cc(CN5CC[C@H](C#N)C5)cc4C(F)(F)F)C3=O)c2)COC1`, the “fold change (FC)” value in assay [1] is 1.201; in assay [2], above 4; in assay [3], 1.41; in [5], above 4; in assay [6], 3.01; in assay [7] it was 2.01. The “fold change (FC)” value is 3.01 in assay [8]; above 1.601 in [9]; “>=0.201” in assay [10]; above 1.61 in assay [11]; 1.31 in [12]; above 4 in [13]. Moreover, the “fold change (FC)” value in assay [14] is given as above 1.61; in [15] it was 3.01; in assay [16], “>=0.201”. The half-maximal inhibitory concentration (IC50) in [4] was below 100 nM.
`C[C@H](Cc1nncn1C)c1cccc(N2Cc3c(ccnc3C3CC3)C2=O)c1`: the “fold change (FC)” value in assay [1] was “<=1.2”; in [2] it was 3.01; in [3] it was “<=1.4”; in assay [5] it was above 4; in assay [6], “<=2”; in assay [7], 2.01. For the same compound, the “fold change (FC)” value is 2.01 in assay [8]; 1.201 in [9]; “>=0.201” in assay [10]; “<=1.4” in assay [11]; 1.01 in assay [12]; 2.01 in assay [13]. Further, the “fold change (FC)” value is given as “<=1.4” in [14], “<=2” in [15] and 0.151 in assay [16].
`Cc1cc2c(c(C3CC3)n1)CN(c1cccc([C@H](C)Cc3nncn3C)c1)C2=O`: the “fold change (FC)” value is listed as “<=1.2” in assay [1]; 2.01 in assay [2]; “<=1.4” in assay [3]; 2.01 in assay [5]; “<=2” in [6]; 1.51 in assay [7]. The “fold change (FC)” value is recorded as “<=2” in [8]; 1.201 in assay [9]; 0.101 in assay [10]; “<=1.4” in [11]; 1.01 in assay [12]; “<=2” in assay [13]. The “fold change (FC)” value in assay [14] is given as “<=1.4”; in [15], “<=2”; in [16], 0.051.
